Assay results taken from patent US10172962B2, “Macromolecular delivery systems for non-invasive imaging, evaluation and treatment of arthritis and other inflammatory diseases” (University of Utah Research Foundation, priority 2004, dated 2019).

Experiments:
Format in all cases: in vivo, rat
AIA rats [1] = test: Visualization of plasma albumin accumulation with Evans blue dye in AIA rats
Protocol: (§1) Male Lewis rats (175-200 g) were obtained from Charles River Laboratories (Portage, Mich.) and allowed to acclimate for at least one week. To induce arthritis, Mycobacterium Tuberculosis H37Ra (1 mg) and LA (5 mg) were mixed in paraffin oil (100 μL), sonicated and s.c. injected into the base of the rat's tail (20). The rats were then randomized into 3 rats/group. The progression of the joint inflammation was followed by measuring the diameter of the ankle joint with calipers. Special care was given to the rats as the inflammation developed to ensure availability and access to water and food. The MRI contrast agents used for the study were injected directly into the jugular vein while the animal was anesthetized with Ketamine and Xylazine.
(§2) Evans blue dye (EB, 10 mg/kg in saline) was injected into healthy and AIA rats via the tail vein. The extravasation and accumulation of dye in the areas of joint inflammation could be visually observed as appearance of the blue pigment. Photographs of the ankle and paws were taken before and 8 hours after injection.
For this experiment, EB was injected into the rats 15 days after injection of the adjuvant. By this time, there is a robust inflammatory reaction evident in the ankle joints. […] Some deep blue spots were also observed on some digits of the paw. […]

healthy rats = test: Evans blue dye injection in healthy control rats; conditions: EB 10 mg/kg tail vein
Protocol: as §2
For this experiment, EB was injected into the rats 15 days after injection of the adjuvant. By this time, there is a robust inflammatory reaction evident in the ankle joints. […] Some deep blue spots were also observed on some digits of the paw. Photographs taken before and after injection of the EB dye confirm that the areas with dye accumulation correspond to those with marked inflammation.

AIA rats [2] = test: Treatment of AIA rats: ankle joint swelling (caliper diameter)
Protocol: as §1
. Hydrazine was used as the targeting moiety, as it may bind to negative charged moieties on cartilage. The anti-arthritic drug, dexamethasone, was linked to the polymer backbone (P-Dex) via a pH sensitive hydrozone bond as illustrated in FIG. 6. The polymer with the hydrazine and dexamethasone attached was then injected into AIA rats (4/group) on day 13 after the induction of arthritis. A single dose of 10 mg (P-Dex)/kg was given. […]

AIA rats [3] = test: Treatment of AIA rats: bone mineral density by peripheral dual x-ray absorptiometry; conditions: 7/group, FIG. 8
Protocol: The bone mineral density (BMD) of the bones in the arthritic joints was measured by peripheral dual x-ray absorptiometry (pDXA, Norland Medical Systems) adapted for small animals. For this the intact hind limbs were used and the scan region included the ankle and foot bones. The coefficient of variation between measurements was less than 1%.
One of the significant impacts of rheumatoid arthritis inflammation is the damage to the bone in the joints, which is evident in FIG. 8 of the animals with no treatment (saline). […] However, such improvement can be greatly strengthened if Dex is conjugated to HPMA copolymer. […] A more dynamic factor to consider in the bone metabolism is the extent of bone erosion. The bone eroded surface directly correlates with the recruitment and activity of osteoclasts, which are the cells responsible for bone resorption and the development of bone damage. In FIG. 9, the bone erosion surface data for all the treatment groups is summarized. […] The histology analysis of the arthritic joints with different treatments also confirmed the superiority of the P-Dex treatment (FIG. 10).

SMILES | accumulation of dye in inflamed paws (AIA rats [1]; AIA rats, EB 10 mg/kg tail vein, 15 days after adjuvant) | nonspecific transfer of dye to other tissues (AIA rats [1]; organs including liver and heart) | localization of dye to joint areas (healthy rats) | ankle joint swelling after the injections on day 13 (AIA rats [2]; P-Dex single dose 10 mg/kg day 13, Dex same dose divided in 4 daily doses day 13-16) | course of inflammation after cessation of the daily Dex injections (AIA rats [2]; P-Dex single dose day 13, Dex 4 daily doses day 13-16) | bone mineral density (BMD) / bone preservation of the arthritic joints (AIA rats [3])
Cc1cc(-c2ccc(/N=N/c3ccc4c(S(=O)(=O)O)cc(S(=O)(=O)O)c(N)c4c3O)c(C)c2)ccc1/N=N/c1ccc2c(S(=O)(=O)O)cc(S(=O)(=O)O)c(N)c2c1O [EB, Evans blue] | gradual accumulation of blue color in the inflamed hind paw and front paws | a slight blue staining was evident in some organs | the dye was not localized to joint areas |  |  | 
C[C@@H]1C[C@H]2[C@@H]3CCC4=CC(=O)C=C[C@]4(C)[C@@]3(F)[C@@H](O)C[C@]2(C)[C@@]1(O)C(=O)COP(=O)(O)O [Dex, Dexamethasone sodium phosphate] |  |  |  | dramatic decrease of ankle joint swelling | the inflammation rapidly got worse | can slow bone erosion
